The target of the assay is T1, Dimer of Gag-Pol polyprotein [501-599,Q508K,L534I,L564I,C568A,C596A] (Human immunodeficiency virus 1, UniProt P03367, C568A/C596A/L534I/L564I/Q508K).
T1 construct: 501-599
In words: Protease Inhibition Assay. The following applies: pH 6.4; 25 °C. How it is done: The Ki values were determined using fluorogenic substrate, 2-(aminobenzoyl)-Thr-Ile-Nle-Phe(p-NO2)-Gln-ArgNH2. A standard curve relating changes in fluorescent intensity to changes in concentration of product was used to convert fluorescent changes into molar velocities. The amount of cleavage was determined by HPLC.
In general, Ki refers to a measure of affinity in units of concentration, obtained from inhibition or displacement. A high value points to lower affinity. `C=CCC1(N(CC(C)C)C[C@@H](O)[C@H](Cc2ccccc2)NC(=O)O[C@H]2CO[C@H]3OCC[C@H]32)C(=O)Nc2ccccc21` (stereo partly drawn) [(3R,3aS,6aR)-hexahydrofuro[2,3-b]furan-3-yl N-[(2S,3R)-3-hydroxy-4-[(2-methylpropyl)[2-oxo-3-(prop-2-en-1-yl)-2,3-dihydro-1H-indol-3-yl]amino]-1-phenylbutan-2-yl]carbamate]: the Ki is 4.5 nM. The value for `CC(C)CN(C[C@@H](O)[C@H](Cc1ccccc1)NC(=O)O[C@H]1CO[C@H]2OCC[C@H]21)C1(C)C(=O)Nc2ccccc21` (stereo partly drawn) [(3R,3aS,6aR)-hexahydrofuro[2,3-b]furan-3-yl N-[(2S,3R)-3-hydroxy-4-[(3-methyl-2-oxo-2,3-dihydro-1H-indol-3-yl)(2-methylpropyl)amino]-1-phenylbutan-2-yl]carbamate] was 4.5 nM; that for `COc1ccc2c(c1)C(C)(N(CC(C)C)C[C@@H](O)[C@H](Cc1ccccc1)NC(=O)O[C@H]1CO[C@H]3OCC[C@H]31)C(=O)N2` (stereo partly drawn) [(3R,3aS,6aR)-hexahydrofuro[2,3-b]furan-3-yl N-[(2S,3R)-3-hydroxy-4-[(5-methoxy-3-methyl-2-oxo-2,3-dihydro-1H-indol-3-yl)(2-methylpropyl)amino]-1-phenylbutan-2-yl]carbamate] was 116 nM. The value for `CC(C)CN(C[C@@H](O)[C@H](Cc1ccccc1)NC(=O)O[C@H]1CO[C@H]2OCC[C@H]21)C1(C)C(=O)N(C)c2ccccc21` (stereo partly drawn) [(3R,3aS,6aR)-hexahydrofuro[2,3-b]furan-3-yl N-[(2S,3R)-4-[(1,3-dimethyl-2-oxo-2,3-dihydro-1H-indol-3-yl)(2-methylpropyl)amino]-3-hydroxy-1-phenylbutan-2-yl]carbamate] was 51 nM; that for `O=C(N[C@@H](Cc1ccccc1)[C@H](O)CN1CC=CCCC12C(=O)Nc1ccccc12)O[C@H]1CO[C@H]2OCC[C@H]21` (stereo partly drawn) [(3R,3aS,6aR)-hexahydrofuro[2,3-b]furan-3-yl N-[(2S,3R)-4-{1',2',1,3,4,7-hexahydrospiro[azepine-2,3'-indole]-2'-one}-3-hydroxy-1-phenylbutan-2-yl]carbamate] was more than 1000 nM; that for `O=C(N[C@@H](Cc1ccccc1)[C@H](O)CN1CCCCCC12C(=O)Nc1ccccc12)O[C@H]1CO[C@H]2OCC[C@H]21` (stereo partly drawn) [(3R,3aS,6aR)-hexahydrofuro[2,3-b]furan-3-yl N-[(2S,3R)-4-{1',2'-dihydrospiro[azepane-2,3'-indole]-2'-one}-3-hydroxy-1-phenylbutan-2-yl]carbamate] was more than 1000 nM. The value for `O=C(N[C@@H](Cc1ccccc1)[C@H](O)CN1CCCCC12C(=O)Nc1ccccc12)O[C@H]1CO[C@H]2OCC[C@H]21` (stereo partly drawn) [(3R,3aS,6aR)-hexahydrofuro[2,3-b]furan-3-yl N-[(2S,3R)-4-{1,2-dihydrospiro[indole-3,2'-piperidine]-2-one}-3-hydroxy-1-phenylbutan-2-yl]carbamate] was more than 1000 nM.

(Values after BindingDB's records for doi:10.1016/j.bmcl.2006.01.011 (Purdue University, 2006).)
